Measurements as given in patent publication EP3755703B1, “N-(PHENYL)-2-(PHENYL)PYRIMIDINE-4-CARBOXAMIDE DERIVATIVES AND RELATED COMPOUNDS AS HPK1 INHIBITORS FOR TREATING CANCER” (Incyte Corporation, priority 2018, dated 2019).

molecular target: T1, HPK1 (Homo sapiens, UniProt Q92918); assay: HPK1 Kinase Binding Assay; conditions: LanthaScreen tracer 222, one hour incubation at 25 °C
T1 construct: purchased SignalChem M23-11G
T1 sequence (Q92918 1-346 limits assumed): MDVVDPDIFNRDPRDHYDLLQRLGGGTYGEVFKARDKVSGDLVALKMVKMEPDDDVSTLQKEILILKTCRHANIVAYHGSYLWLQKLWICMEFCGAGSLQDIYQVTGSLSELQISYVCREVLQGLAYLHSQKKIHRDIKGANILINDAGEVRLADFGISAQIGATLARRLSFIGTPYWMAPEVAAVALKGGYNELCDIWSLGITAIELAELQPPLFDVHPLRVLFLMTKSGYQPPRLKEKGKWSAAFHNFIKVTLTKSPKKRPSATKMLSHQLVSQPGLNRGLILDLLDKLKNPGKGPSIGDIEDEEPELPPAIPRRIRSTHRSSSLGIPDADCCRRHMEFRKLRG
Protocol: A stock solution of 1 mM test compound was prepared in DMSO. The compound plate was prepared by 3-fold and 11-point serial dilutions. 0.1 µL of the compound in DMSO was transferred from the compound plate to the white 384 well polystyrene plates. The assay buffer contained 50 mM HEPES, pH 7.5, 0.01% Tween-20, 5 mM MgCl2, 0.01% BSA, and 5 mM DTT. 5 µL of 4 nM active HPK1 (SignalChem M23-11G) prepared in the buffer was added to the plate. The enzyme concentration given was based on the given stock concentration reported by the vender. […] After one hour incubation at 25 °C, the plates were read on a PHERAstar FS plate reader (BMG Labtech). Ki values were determined.

Row | SMILES | Ki
1 | COc1cccc(F)c1-c1nccc(C(=O)Nc2cc(F)cc(-c3cnn(C)c3)c2N2C[C@H]3C[C@@H]2CN3)n1 [Example 16, N-(2-((1R,4R)-2,5-Diazabicyclo[2.2.1]heptan-2-yl)-5-fluoro-3-(1-methyl-1H pyrazol-4-yl)phenyl)-2-(2-fluoro-6-methoxyphenyl)pyrimidine-4-carboxamide] | < 0.1 µM
2 | COC[C@@H]1CCN1c1ccc(NC(=O)c2ccnc(-c3c(F)cccc3OC)n2)c(N2C[C@@H]3C[C@H]2CN3)c1 [Example 39, N-(2-((1S,4S)-2,5-Diazabicyclo[2.2.1]heptan-2-yl)-4-((S)-2-(methoxymethyl)azetidin-1-yl)phenyl)-2-(2-fluoro-6-methoxyphenyl)pyrimidine-4-carboxamide] | < 0.1 µM
3 | N[C@H]1C[C@@H](CO)N(c2ccc(F)cc2NC(=O)c2ccnc(-c3c(F)cccc3F)n2)C1 [Example 66, N-(2-((2S,4S)-4-Amino-2-(hydroxymethyl)pyrrolidin-1-yl)-5-fluorophenyl)-2-(2,6-difluorophenyl)pyrimidine-4-carboxamide] | < 0.1 µM
4 | COc1cccc(F)c1-c1nccc(C(=O)Nc2ccc(-c3cnccc3C#N)cc2N2C[C@]3(CO)C[C@H]2CN3C)n1 [Example 99, N-(4-(4-Cyanopyridin-3-yl)-2-((1S,4S)-4-(hydroxymethyl)-5-methyl-2,5-diazabicyclo [2.2.1]heptan-2-yl)phenyl)-2-(2-fluoro-6-methoxyphenyl)pyrimidine-4-carboxamide] | < 0.1 µM
5 | COc1cccc(F)c1-c1nccc(C(=O)Nc2ccc(-c3cnccc3C#N)cc2N2C[C@@H](N)C[C@H]2C(C)(C)O)n1 [Example 54, N-(2-((2S,4S)-4-Amino-2-(2-hydroxypropan-2-yl)pyrrolidin-1-yl)-4-(4-cyanopyridin-3-yl)phenyl)-2-(2-fluoro-6-methoxyphenyl)pyrimidine-4-carboxamide] | < 0.1 µM
6 | COc1cccc(F)c1-c1nccc(C(=O)Nc2ccc(-c3cnccc3C#N)cc2N2CC[C@H]2CO)n1 [Example 106, (S)-N-(4-(4-Cyanopyridin-3-yl)-2-(2-(hydroxymethyl)azetidin-1-yl)phenyl)-2-(2-fluoro-6-methoxyphenyl)pyrimidine-4-carboxamide] | < 0.1 µM
7 | COc1cc(C)cc(F)c1-c1nccc(C(=O)Nc2ccc(-c3cnccc3C#N)cc2N2C[C@@H](N)C[C@H]2CO)n1 [Example 70, N-(2-((2S,4S)-4-Amino-2-(hydroxymethyl)pyrrolidin-1-yl)-4-(4-cyanopyridin-3-yl)phenyl)-2-(2-fluoro-6-methoxy-4-methylphenyl)pyrimidine-4-carboxamide] | < 0.1 µM
8 | COc1cccc(F)c1-c1nccc(C(=O)Nc2cc(F)ccc2N2C[C@@H](N(C)C)C[C@H]2CO)n1 [Example 88, N-(2-((2S,4S)-4-(Dimethylamino)-2-(hydroxymethyl)pyrrolidin-1-yl)-5-fluorophenyl)-2-(2-fluoro-6-methoxyphenyl)pyrimidine-4-carboxamide] | < 0.1 µM
9 | COc1ccc(C#N)c(F)c1-c1nccc(C(=O)Nc2cc(F)ccc2N2C[C@@H](N)C[C@H]2CO)n1 [Example 67, N-(2-((2S,4S)-4-Amino-2-(hydroxymethyl)pyrrolidin-1-yl)-5-fluorophenyl)-2-(3-cyano-2-fluoro-6-methoxyphenyl)pyrimidine-4-carboxamide] | < 0.1 µM
10 | COc1cccc(F)c1-c1nccc(C(=O)Nc2cc(F)ccc2N2CCOCC2CO)n1 (centres unmarked) [Example 12, N-(5-Fluoro-2-(3-(hydroxymethyl)morpholino)phenyl)-2-(2-fluoro-6-methoxyphenyl)pyrimidine-4-carboxamide] | < 0.1 µM
11 | Cc1cccc(F)c1-c1nccc(C(=O)Nc2ccc(-c3cnccc3C#N)cc2N2C[C@@H](N)C[C@H]2CO)n1 [Example 63, N-(2-((2S,4S)-4-Amino-2-(hydroxymethyl)pyrrolidin-1-yl)-4-(4-cyanopyridin-3-yl)phenyl)-2-(2-fluoro-6-methylphenyl)pyrimidine-4-carboxamide] | < 0.1 µM
12 | COc1cccc(F)c1-c1nccc(C(=O)Nc2cc(F)c(CNC3CCC3)cc2N2C[C@@H]3C[C@H]2CN3)n1 [Example 31, N-(2-((1S,4S)-2,5-Diazabicyclo[2.2.1]heptan-2-yl)-4-((cyclobutylamino)methyl)-5-fluorophenyl)-2-(2-fluoro-6-methoxyphenyl)pyrimidine-4-carboxamide] | < 0.1 µM

Results, then the molecule that gave them:

Row | Ki | SMILES
13 | < 0.1 µM | COCC1CN(c2cc(-c3cnccc3C#N)ccc2NC(=O)c2ccnc(-c3c(F)cccc3OC)n2)C1 [Example 105, N-(4-(4-Cyanopyridin-3-yl)-2-(3-(methoxymethyl)azetidin-1-yl)phenyl)-2-(2-fluoro-6-methoxyphenyl)pyrimidine-4-carboxamide]
14 | < 0.1 µM | COc1cccc(F)c1-c1nccc(C(=O)Nc2ccc(-c3cnccc3C#N)cc2N2C[C@@H](C)NC[C@H]2CO)n1 [Example 50, N-(4-(4-Cyanopyridin-3-yl)-2-((2S,5R)-2-(hydroxymethyl)-5-methylpiperazin-1-yl)phenyl)-2-(2-fluoro-6-methoxyphenyl)pyrimidine-4-carboxamide]
15 | < 0.1 µM | COc1cccc(F)c1-c1nccc(C(=O)Nc2ccc(-c3cnccc3C#N)cc2N2CCO[C@@H](CN(C)C)C2)n1 [Example 101, (S)-N-(4-(4-Cyanopyridin-3-yl)-2-(2-((dimethylamino)methyl)morpholino)phenyl)-2-(2-fluoro-6-methoxyphenyl)pyrimidine-4-carboxamide]
16 | < 0.1 µM | COc1cccc(F)c1-c1nccc(C(=O)Nc2cc(F)ccc2N2CCC[C@@H]2CN)n1 [Example 3, (R)-N-(2-(2-(Aminomethyl)pyrrolidin-1-yl)-5-fluorophenyl)-2-(2-fluoro-6-methoxyphenyl)pyrimidine-4-carboxamide]
17 | < 0.1 µM | COc1cccc(F)c1-c1nccc(C(=O)Nc2ccc(-c3cnccc3C#N)cc2N2CCN(C)CC2)n1 [Example 108, N-(4-(4-Cyanopyridin-3-yl)-2-(4-methylpiperazin-1-yl)phenyl)-2-(2-fluoro-6-methoxyphenyl)pyrimidine-4-carboxamide]
18 | < 0.1 µM | COc1cccc(F)c1-c1nccc(C(=O)Nc2cc(C)ccc2N2C[C@@H](N)C[C@H]2CO)n1 [Example 87, N-(2-((2S,4S)-4-Amino-2-(hydroxymethyl)pyrrolidin-1-yl)-5-methylphenyl)-2-(2-fluoro-6-methoxyphenyl)pyrimidine-4-carboxamide]
19 | < 0.1 µM | COc1cccc(F)c1-c1nccc(C(=O)Nc2ccc(N3CCC3)cc2N2C[C@@H]3C[C@H]2CN3)n1 [Example 38, N-(4-(Azetidin-1-yl)-2-((1S,4S)-2,5-diazabicyclo[2.2.1]heptan-2-yl)phenyl)-2-(2-fluoro-6-methoxyphenyl)pyrimidine-4-carboxamide]
20 | 0.1 to 0.5 µM | COc1cccc(F)c1-c1nccc(C(=O)Nc2cc(C#N)ccc2N2C[C@H]3C[C@@H]2CN3)n1 [Example 37, N-(2-((1R,4R)-2,5-Diazabicyclo[2.2.1]heptan-2-yl)-5-cyanophenyl)-2-(2-fluoro-6-methoxyphenyl)pyrimidine-4-carboxamide]
21 | < 0.1 µM | COc1cccc(F)c1-c1nccc(C(=O)Nc2ccc(C3CCOCC3)cc2N2C[C@@H](N)C[C@H]2CO)n1 [Example 90, N-(2-((2S,4S)-4-Amino-2-(hydroxymethyl)pyrrolidin-1-yl)-4-(tetrahydro-2H-pyran-4-yl)phenyl)-2-(2-fluoro-6-methoxyphenyl)pyrimidine-4-carboxamide]
22 | < 0.1 µM | COc1cccc(F)c1-c1nc(C(=O)Nc2ccc(-c3cnccc3C#N)cc2N2C[C@@H](N)C[C@H]2CO)ccc1C#N [Example 60, N-(2-((2S,4S)-4-Amino-2-(hydroxymethyl)pyrrolidin-1-yl)-4-(4-cyanopyridin-3-yl)phenyl)-5-cyano-6-(2-fluoro-6-methoxyphenyl)picolinamide]
23 | < 0.1 µM | COc1cccc(F)c1-c1nccc(C(=O)Nc2ccc(S(C)(=O)=O)cc2N2C[C@@H](N)C[C@H]2CO)n1 [Example 85, N-(2-((2S,4S)-4-Amino-2-(hydroxymethyl)pyrrolidin-1-yl)-4-(methylsulfonyl)phenyl)-2-(2-fluoro-6-methoxyphenyl)pyrimidine-4-carboxamide]
24 | < 0.1 µM | CCOc1cccc(F)c1-c1nccc(C(=O)Nc2ccc(-c3cnccc3C#N)cc2N2C[C@@H](N)C[C@H]2CO)n1 [Example 98, N-(2-((2S,4S)-4-Amino-2-(hydroxymethyl)pyrrolidin-1-yl)-4-(4-cyanopyridin-3-yl)phenyl)-2-(2-ethoxy-6-fluorophenyl)pyrimidine-4-carboxamide]
25 | < 0.1 µM | COc1cccc(F)c1-c1nccc(C(=O)Nc2cc(CO)ccc2N2C[C@H]3C[C@@H]2CN3)n1 [Example 36, N-(2-((1R,4R)-2,5-Diazabicyclo[2.2.1]heptan-2-yl)-5-(hydroxymethyl)phenyl)-2-(2-fluoro-6-methoxyphenyl)pyrimidine-4-carboxamide]
26 | 0.1 to 0.5 µM | COC[C@H]1CCCN1c1ccc(F)cc1NC(=O)c1ccnc(-c2c(F)cccc2OC)n1 [Example 5, (R)-N-(5-Fluoro-2-(2-(methoxymethyl)pyrrolidin-1-yl)phenyl)-2-(2-fluoro-6-methoxyphenyl)pyrimidine-4-carboxamide]
